The results in this text go back to ChEMBL document CHEMBL1201862, “PubChem BioAssay data set” (2004).

In general, IC50 refers to the point on the concentration scale where inhibition reaches its midpoint. The CC50 is the concentration giving 50% cytotoxicity. In general, AC50 refers to the concentration giving half of the maximal activity seen.

In assay [1] the target is Ras and Rab interactor 1/Tyrosine-protein kinase ABL1 (Homo sapiens, UniProt P00519+Q13671). It counts as functional.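 Also: biochemical TR-FRET dose-response test measuring inhibition of binding between Rin1 and Abl proteins.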
A further assay has as its system Vero. Kind of assay: viability of Vero cells under compound – cytotoxicity control for flavivirus capping enzyme inhibitors (AID 588742). Format: functional. The note with it: Chlorocebus sabaeus.
Assay [2] concerns the target Induced myeloid leukemia cell differentiation protein Mcl-1 (Homo sapiens, UniProt Q07820). Format: functional.
A further assay has as its target T1, Hexokinase HKDC1 (Homo sapiens, UniProt Q2TB90).
T1 sequence (Q2TB90 whole entry): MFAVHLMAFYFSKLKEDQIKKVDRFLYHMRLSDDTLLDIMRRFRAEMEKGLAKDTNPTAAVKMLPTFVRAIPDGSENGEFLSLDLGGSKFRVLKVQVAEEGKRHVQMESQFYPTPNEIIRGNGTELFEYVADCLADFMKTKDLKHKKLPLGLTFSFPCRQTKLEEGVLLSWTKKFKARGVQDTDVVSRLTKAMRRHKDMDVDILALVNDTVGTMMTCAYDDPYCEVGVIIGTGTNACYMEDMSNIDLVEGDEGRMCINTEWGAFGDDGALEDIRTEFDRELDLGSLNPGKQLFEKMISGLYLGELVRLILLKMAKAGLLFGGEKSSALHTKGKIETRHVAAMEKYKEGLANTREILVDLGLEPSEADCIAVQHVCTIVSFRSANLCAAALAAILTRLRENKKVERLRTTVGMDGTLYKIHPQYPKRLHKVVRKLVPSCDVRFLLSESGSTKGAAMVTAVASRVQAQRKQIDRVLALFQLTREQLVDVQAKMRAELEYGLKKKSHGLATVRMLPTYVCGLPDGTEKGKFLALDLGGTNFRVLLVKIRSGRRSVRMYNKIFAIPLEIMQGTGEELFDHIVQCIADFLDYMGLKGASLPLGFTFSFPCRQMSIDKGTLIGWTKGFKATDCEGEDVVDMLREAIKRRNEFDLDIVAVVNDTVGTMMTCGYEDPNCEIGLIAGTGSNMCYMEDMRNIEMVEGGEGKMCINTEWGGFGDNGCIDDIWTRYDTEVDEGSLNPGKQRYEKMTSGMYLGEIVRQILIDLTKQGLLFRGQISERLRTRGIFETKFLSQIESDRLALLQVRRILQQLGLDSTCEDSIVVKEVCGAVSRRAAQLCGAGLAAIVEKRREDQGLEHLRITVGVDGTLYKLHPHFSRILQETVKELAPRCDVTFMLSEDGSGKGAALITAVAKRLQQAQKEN
Kind of assay: SAR analysis of small molecule inhibitors of hexokinase domain containing I (HKDC1). [Related pubchem assays (depositor defined):AID493160, AID493190]. Format: functional.

Another assay addresses T2, Hexokinase-1 (Homo sapiens, UniProt P19367).
T2 sequence (P19367 whole entry): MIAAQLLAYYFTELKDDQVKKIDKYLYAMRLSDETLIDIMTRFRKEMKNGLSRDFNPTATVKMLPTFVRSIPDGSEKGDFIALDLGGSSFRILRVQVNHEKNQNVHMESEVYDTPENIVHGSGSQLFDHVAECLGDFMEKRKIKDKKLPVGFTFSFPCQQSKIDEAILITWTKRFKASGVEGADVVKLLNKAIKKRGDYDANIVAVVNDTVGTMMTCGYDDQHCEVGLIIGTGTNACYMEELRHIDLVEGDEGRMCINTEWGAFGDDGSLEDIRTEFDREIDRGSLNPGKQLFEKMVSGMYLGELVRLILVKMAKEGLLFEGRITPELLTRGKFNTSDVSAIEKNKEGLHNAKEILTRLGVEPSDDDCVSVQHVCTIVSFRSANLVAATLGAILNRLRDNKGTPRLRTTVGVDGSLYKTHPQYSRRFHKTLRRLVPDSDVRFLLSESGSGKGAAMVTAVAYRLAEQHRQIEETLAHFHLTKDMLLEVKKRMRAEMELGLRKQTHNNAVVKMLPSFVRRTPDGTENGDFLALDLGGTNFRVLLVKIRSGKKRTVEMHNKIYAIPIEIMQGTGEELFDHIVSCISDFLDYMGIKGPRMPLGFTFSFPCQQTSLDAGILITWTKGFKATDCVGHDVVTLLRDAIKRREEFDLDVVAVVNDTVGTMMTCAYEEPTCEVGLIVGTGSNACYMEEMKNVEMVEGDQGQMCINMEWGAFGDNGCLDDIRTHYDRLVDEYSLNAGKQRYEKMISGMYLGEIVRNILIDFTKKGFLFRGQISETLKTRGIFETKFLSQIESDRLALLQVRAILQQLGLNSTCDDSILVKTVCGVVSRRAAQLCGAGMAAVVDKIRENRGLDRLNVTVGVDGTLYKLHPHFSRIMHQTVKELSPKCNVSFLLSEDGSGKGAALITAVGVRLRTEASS
Kind of assay: SAR analysis of small molecule inhibitors of hexokinase domain containing I (HKDC1) in the hexokinase 1 selectivity assay. [Related pubchem assays (depositor defined):AID493160, AID493190]. Format: functional.

A further assay relates to HeLa. The experiment in a line: toxicity to human HeLa cells – cell-based, 48 h, plate reader, cherry-picks, cytotoxicity control, dose response (AID 504942). It counts as functional.
For assay [3], the target named is T3, Acyl-homoserine lactone acylase PvdQ (Pseudomonas aeruginosa (strain LESB58), UniProt Q9I194).
T3 sequence (Q9I194 whole entry): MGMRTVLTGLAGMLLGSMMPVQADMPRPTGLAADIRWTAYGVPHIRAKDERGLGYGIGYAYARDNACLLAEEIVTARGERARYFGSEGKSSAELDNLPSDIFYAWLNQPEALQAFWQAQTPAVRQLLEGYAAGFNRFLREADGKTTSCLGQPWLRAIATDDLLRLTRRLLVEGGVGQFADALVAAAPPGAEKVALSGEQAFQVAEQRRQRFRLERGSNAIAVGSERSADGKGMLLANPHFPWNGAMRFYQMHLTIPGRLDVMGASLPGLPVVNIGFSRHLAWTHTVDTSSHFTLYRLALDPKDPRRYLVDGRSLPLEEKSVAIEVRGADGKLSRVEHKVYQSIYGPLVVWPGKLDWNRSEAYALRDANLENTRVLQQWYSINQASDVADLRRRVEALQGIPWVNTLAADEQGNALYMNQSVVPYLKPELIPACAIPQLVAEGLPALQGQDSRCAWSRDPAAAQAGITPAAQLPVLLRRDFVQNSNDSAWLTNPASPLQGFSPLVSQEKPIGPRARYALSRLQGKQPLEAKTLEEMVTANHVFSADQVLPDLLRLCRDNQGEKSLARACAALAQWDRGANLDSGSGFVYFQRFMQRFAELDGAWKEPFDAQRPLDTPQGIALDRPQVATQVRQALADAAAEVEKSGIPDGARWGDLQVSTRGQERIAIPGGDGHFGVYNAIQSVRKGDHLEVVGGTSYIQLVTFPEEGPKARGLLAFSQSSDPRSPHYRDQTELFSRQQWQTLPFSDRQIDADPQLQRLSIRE
The experiment in a line: PvdQ acylase enzyme activity blockers – biochemical, fluorescence, plate reader and imaging, cherry-picks, dose response (AID 493231).

The next assay concerns the target Trypsin (Sus scrofa, UniProt P00761). The experiment in a line: trypsin protease activity blockade – biochemical, quenched peptide fluorescence, cherry-pick, selectivity assay for Rce1 protease inhibitor project, dose response (AID 488789).
The target in a further assay is T4, Protein skinhead-1 (Caenorhabditis elegans, UniProt P34707).
T4 sequence (P34707 whole entry): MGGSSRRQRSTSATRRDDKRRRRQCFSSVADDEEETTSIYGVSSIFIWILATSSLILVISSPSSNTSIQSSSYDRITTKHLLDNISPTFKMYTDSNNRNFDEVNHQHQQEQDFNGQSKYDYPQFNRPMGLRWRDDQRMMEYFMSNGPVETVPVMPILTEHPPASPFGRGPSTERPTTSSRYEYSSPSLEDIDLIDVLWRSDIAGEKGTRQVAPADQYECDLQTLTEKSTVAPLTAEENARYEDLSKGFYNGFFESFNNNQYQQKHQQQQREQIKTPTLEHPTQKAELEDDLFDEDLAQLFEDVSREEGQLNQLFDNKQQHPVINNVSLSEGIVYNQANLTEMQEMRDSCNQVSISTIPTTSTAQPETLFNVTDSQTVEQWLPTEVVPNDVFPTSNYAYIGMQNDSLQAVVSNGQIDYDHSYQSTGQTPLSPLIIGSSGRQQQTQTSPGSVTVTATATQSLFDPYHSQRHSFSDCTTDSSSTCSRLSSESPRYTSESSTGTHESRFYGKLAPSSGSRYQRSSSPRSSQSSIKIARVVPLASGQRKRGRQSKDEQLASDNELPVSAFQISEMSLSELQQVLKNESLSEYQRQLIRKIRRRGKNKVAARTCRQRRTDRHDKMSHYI
Format: functional.

The next assay relates to HEK293. The experiment in a line: EBV LMP1 TES2 canonical NF-kB signalling blockers – cell-based, HEK293, luciferase, cherry-pick, dose response (AID 588343). It counts as functional. The note with it: Homo sapiens.

The structures appear in SMILES notation. Activity calls are given as the source filed them. Some results are limits rather than exact numbers.

Trypsin, sequence (P00761 whole entry): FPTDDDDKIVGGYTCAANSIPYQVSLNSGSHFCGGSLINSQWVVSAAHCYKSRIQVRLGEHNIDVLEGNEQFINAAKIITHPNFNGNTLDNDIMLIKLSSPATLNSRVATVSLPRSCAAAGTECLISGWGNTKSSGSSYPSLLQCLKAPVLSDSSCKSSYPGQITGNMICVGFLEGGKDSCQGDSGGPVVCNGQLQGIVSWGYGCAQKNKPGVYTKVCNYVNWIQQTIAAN
Ras and Rab interactor 1/Tyrosine-protein kinase ABL1, sequence (P00519 whole entry): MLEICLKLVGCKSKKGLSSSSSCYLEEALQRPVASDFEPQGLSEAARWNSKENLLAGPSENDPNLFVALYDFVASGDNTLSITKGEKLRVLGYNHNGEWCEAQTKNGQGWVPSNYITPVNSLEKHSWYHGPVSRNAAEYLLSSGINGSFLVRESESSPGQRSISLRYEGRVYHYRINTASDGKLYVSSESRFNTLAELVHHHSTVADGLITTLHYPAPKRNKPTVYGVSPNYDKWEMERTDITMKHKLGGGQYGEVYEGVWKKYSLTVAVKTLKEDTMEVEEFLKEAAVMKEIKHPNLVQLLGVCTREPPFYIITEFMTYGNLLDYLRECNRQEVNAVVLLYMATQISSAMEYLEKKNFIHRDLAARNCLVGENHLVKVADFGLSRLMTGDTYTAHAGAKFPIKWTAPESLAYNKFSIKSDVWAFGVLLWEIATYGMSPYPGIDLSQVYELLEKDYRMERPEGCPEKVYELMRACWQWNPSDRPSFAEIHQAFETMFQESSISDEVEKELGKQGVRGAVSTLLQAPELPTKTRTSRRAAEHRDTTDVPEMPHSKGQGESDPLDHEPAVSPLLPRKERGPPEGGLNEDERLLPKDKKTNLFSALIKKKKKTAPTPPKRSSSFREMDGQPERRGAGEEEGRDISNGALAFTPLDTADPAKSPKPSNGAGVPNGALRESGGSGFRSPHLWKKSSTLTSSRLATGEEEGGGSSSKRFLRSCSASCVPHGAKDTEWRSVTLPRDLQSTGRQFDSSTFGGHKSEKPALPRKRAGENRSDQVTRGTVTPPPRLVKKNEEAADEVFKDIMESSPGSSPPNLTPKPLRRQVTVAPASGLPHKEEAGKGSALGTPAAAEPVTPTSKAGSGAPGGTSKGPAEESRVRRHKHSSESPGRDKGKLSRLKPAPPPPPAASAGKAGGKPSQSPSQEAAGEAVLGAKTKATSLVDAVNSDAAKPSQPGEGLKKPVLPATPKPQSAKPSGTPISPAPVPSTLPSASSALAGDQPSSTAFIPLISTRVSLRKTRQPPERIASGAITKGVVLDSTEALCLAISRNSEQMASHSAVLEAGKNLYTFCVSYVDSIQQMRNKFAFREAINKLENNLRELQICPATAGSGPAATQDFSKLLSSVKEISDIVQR
Ras and Rab interactor 1/Tyrosine-protein kinase ABL1, sequence (Q13671 whole entry): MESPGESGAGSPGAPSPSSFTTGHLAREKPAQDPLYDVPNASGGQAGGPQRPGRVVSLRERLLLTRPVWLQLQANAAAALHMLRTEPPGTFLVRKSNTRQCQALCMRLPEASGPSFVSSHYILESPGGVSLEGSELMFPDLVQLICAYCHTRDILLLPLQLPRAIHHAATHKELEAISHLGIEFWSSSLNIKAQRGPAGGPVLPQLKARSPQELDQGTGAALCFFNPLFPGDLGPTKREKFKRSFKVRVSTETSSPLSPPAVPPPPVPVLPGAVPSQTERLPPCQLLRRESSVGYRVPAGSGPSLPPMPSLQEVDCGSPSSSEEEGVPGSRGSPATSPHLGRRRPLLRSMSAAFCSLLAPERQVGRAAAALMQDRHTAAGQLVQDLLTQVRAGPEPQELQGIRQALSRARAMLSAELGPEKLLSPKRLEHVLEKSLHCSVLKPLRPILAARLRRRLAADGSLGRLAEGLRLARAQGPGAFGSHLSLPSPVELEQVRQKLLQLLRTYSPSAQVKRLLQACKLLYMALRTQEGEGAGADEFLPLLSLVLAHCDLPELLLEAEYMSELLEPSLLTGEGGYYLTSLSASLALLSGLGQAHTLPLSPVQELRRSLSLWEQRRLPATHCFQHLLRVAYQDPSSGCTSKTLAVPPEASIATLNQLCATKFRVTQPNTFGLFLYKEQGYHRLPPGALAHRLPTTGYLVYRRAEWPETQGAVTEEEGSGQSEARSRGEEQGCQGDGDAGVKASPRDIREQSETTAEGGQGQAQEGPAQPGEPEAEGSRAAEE
Induced myeloid leukemia cell differentiation protein Mcl-1, sequence (Q07820 whole entry): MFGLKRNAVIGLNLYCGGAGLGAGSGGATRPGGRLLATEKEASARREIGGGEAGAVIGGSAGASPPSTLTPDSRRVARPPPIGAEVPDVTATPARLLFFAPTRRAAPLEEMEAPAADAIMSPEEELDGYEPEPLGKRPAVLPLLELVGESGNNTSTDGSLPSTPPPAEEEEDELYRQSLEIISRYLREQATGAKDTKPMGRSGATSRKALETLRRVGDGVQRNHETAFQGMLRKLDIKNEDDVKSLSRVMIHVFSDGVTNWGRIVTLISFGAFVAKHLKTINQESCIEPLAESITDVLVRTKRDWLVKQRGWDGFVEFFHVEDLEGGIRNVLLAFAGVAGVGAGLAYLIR

As for `CCOC(=O)CCCCC(=O)c1[nH]c(O)nc1CN1CCOCC1`, in assay [1], the IC50 was 0.548 µM (active).

With `CNc1ccc(Br)cc(C(=O)/C=C/c2ccc(OC)cc2OC)c1=O`, the CC50 in the assay with Vero was > 40 µM (active). For the same compound, the half-maximal inhibitory concentration (IC50) in assay [2] is 2.17 µM (active).

With `O=C(CSc1nc2ccccc2[nH]1)Nc1cccc(S(=O)(=O)N2CCOCC2)c1`, the IC50 at Hexokinase HKDC1 and at Hexokinase-1 was > 80 µM (inactive) throughout.

For the compound `c1ccn2cc(-c3ccc4c(c3)OCCO4)nc2c1`, the AC50 in the assay with HeLa was 55.2 µM (active); in assay [3] it was 4.31 µM (active); at Trypsin it was 6.17 µM (active); with HEK293, 1.53 µM (active). Further, the IC50 on Protein skinhead-1 was > 100 µM (inactive).

Turning to `Cc1ccc(Cn2c(/C=C/c3cccnc3)nc3ccccc3c2=O)cc1`, the IC50 on Hexokinase HKDC1 and on Hexokinase-1 was > 80 µM (inactive) each time.
